Where two headings read alike, the source gives them in different places.
Key:
[1] = biological target: T1, HIV-1 reverse transcriptase (Human immunodeficiency virus type 1 group M subtype B, UniProt P03367); experiment: Reverse Transcriptase (RT) Assay (RNA-dependent DNA polymerase activity); assay type: biochemical, Human Immunodeficiency Virus (HIV-1), LAV strain; settings: read-out: RT Inhibition (% @ 10 μg/ml)
T1 construct: Reverse transcriptase enzyme from the LAV strain of Human Immuno-deficiencyVirus (HIV-1); made in house; host or cells: E. coli JM109 (species of the strain is own knowledge), DNA clone pBRTprtl+ in expression vector pIBI21 (lac promoter)
Excerpt: As stated before, the compounds of formula I inhibit the enzymatic activity of HIV-1 RT. Based upon testing of these compounds, as described below, it is known that they inhibit the RNA-dependent DNA polymerase activity of HIV RT.
Utilizing the Reverse Transcriptase (RT) Assay described below, compounds can be tested for their ability to inhibit the RNA-dependent DNA polymerase activity of HIV RT. Certain specific compounds, described in the Examples which appear below, were so tested.
Among the enzymes for which Human Immunodeficiency Virus (HIV-1) encodes is a reverse transcriptase (1), so-named because it transcribes a DNA copy from an RNA template. This activity can be quantitatively measured in a cell-free enzyme assay which has been previously described (2), and is based upon the observation that reverse transcriptase is able to use a synthetic template [poly r(C) primed with oligo d(G)] to transcribe a radio-labelled, acid-precipitable DNA strand utilizing ^3 H-dGTP as a substrate. […]
a) Preparation of the enzyme
Reverse transcriptase enzyme from the LAV strain of Human Immuno-deficiencyVirus (HIV-1) (1) was isolated from the bacterial strain JM109 (3) expressing the DNA clone pBRTprtl+(2) which is under the control of the lac promotor in the expression vector pIBI21 (4). An overnight culture grown in 2XYT medium (37° C., 225 rpm) (5) supplemented with […] ampicillin for positive selection is inoculated at a 1:40 dilution into M9 medium supplemented with 10 mg/ml thiamine, 0.5% casamino acids, and […] ampicillin (5). The culture is incubated (37° C., 225 rpm) until it reaches an OD540 of 0.3-0.4. At that time the repressor inhibitor IPTG (isopropyl b-D-thiogalactopyranoside) is added to 0.5 mM and incubated for 2 additional hours. Bacteria are pelletted, resuspended in a 50 mM Tris, 0.6 mM EDTA, 0.375M NaCl buffer and digested by the addition of lysozyme (1 mg/ml) for 30 minutes on ice. The cells are lysed by the addition to 0.2% NP-40 and brought to 1M NaCl.
After removal of the insoluble debris by centrifugation, the protein is precipitated by the addition of 3 volumes of saturated aqueous ammonium sulfate. The enzyme is pelleted, resuspended in RT buffer (50 mM Tris pH 7.5, 1 mM EDTA, 5 mMDTT, 0.1% NP-40, 0.1M NaCl, and 50% glycerol) and stored at -70° C. for further use. […]
b) Composition of 2X concentrated stock reaction mixture
Stock Reagent 2X Mix Concentration
[poly r(C)/oligo d(G)](5:1)
The 2X concentrated stock reaction mixture is aliquoted and stored at -20° C. The mixture is stable and thawed for use in each assay. This enzyme assay has been adapted to a 96 well microtiter plate system, and has been previously described (6). Tris buffer (50 mM, pH 7.4), vehicle (solvent diluted to match the compound dilution), or compounds in vehicle are dispensed into 96-well microtiter plates (10 μl/well; 3 wells/compound). The HIV RT enzyme is thawed, diluted in 50 mM Tris pH 7.4 so that fifteen μl of diluted enzyme contain 0.001 Unit (one unit is that amount of enzyme to transform 1 micromole of substrate per minute at 25° C.), and 15 μl are dispensed per well. Twenty μl of 0.12-0.5M EDTA are added to the first three wells of the microtiter plate. EDTA chelates the Mg^++ present and prevents reverse transcription. This group serves as background polymerization which is subtracted from all other groups. Twenty-five μl of the 2X reaction mixture are added to all wells and the assay is allowed to incubate at room temperature for 60 minutes. The assay is terminated by precipitating the DNA in each well with 50μl of 10% trichloracetic acid (TCA) in 1% sodium pyrophosphate. The microtiter plate is incubated for 15 minutes at 4° C. and the precipitate is fixed onto #30 glass fiber paper (Schleicher & Schuell) using a Skatron semi-automatic harvester. […]

HIV-1 = experiment: Human T Cell Culture Assay (HIV-1 induced syncytia formation in C8166 cells); assay type: cell-based, HIV-1 HTLV-IIIB strain (human C8166 T-cells); settings: HTLV-IIIB, four days after virus challenge, compound concentration not given
Protocol: In order to confirm that compounds which are active in the RT Assay also have the ability to inhibit HIV replication in a living system, a compound of formula I was also tested in the human T-Cell Culture Assay described below.
Assay Theory: Formation of syncytia is a feature of in vitro cultures of CD4+ T-cells infected with HIV-1. In this assay, T-cells are treated with a putative replication inhibiting compound and then infected with HIV-1. After incubation the culture is checked for the formation of syncytia. The absence or reduction is the number of syncytia is used as a measure of the test compound's ability to inhibit HIV replication.
Assay Method: The target cells, designated C8166, are a subclone of human lymphoma cells of T-cell origin and are established at an initial density of 5×10^4 per 100 μl in RPMI 1640 (+10% fetal bovine serum) culture medium in 96 well flat bottom plates. A selected amount of test compound, dissolved in DMSO is included. After 24 hours, 50-100 TCID50 's (the dose that results in induced effect in 50% of test cultures) of the HTLV-IIIB strain of HIV-1 (2) are innoculated into each culture. Control cultures receive compound or virus only. […] The percent inhibition by the test compound is determined by comparison with control values. […]

[2] = 10 μg/ml, poly r(C)/oligo d(G) template, 60 minutes, room temperature

Row | Structure (SMILES) | inhibition at 10 µg/mL [1, 2] [%] | further results
1 | CCCN1C(=O)c2ccccc2Sc2ccccc21 [Example 5, 10-n-Propyl-Dibenz[b,f][1.4]Thiazepin-11(10H)-One] | 98 | –
2 | C=CCN1C(=O)c2ccccc2Oc2ccccc21 [Example 9] | 98 | –
3 | CSCN1C(=O)c2ccc(Cl)cc2Oc2ccccc21 [Example 37] | 98 | –
4 | CCOC(=O)CN1C(=O)c2ccccc2Oc2ccccc21 [Example 43] | 76 | –
5 | Nc1ccc2c(c1)C(=O)Nc1cc(Cl)ccc1O2 [Example 17] | 67 | –
6 | O=C1c2ccccc2Oc2ccccc2N1CCF [Example 46] | 93 | –
7 | CSCCN1C(=O)c2cc(Cl)ccc2Oc2ccccc21 [Example 41] | 49 | –
8 | CNc1ccc2c(c1)C(=O)Nc1ccccc1O2 [Example 28] | 30 | –
9 | CN1C(=O)c2ccccc2Oc2ccccc21 [Example 10] | 93 | –
10 | NC(=O)CN1C(=O)c2ccccc2Sc2ccccc21 [Example 50] | 66 | –
11 | CN1C(=O)c2cc(N)ccc2Oc2ccccc21 [Example 22] | 99 | –
12 | O=C1Nc2ccccc2Oc2ccccc21 [Example 7] | 22 | –
13 | COc1ccc2c(c1)Oc1ccccc1C(=O)N2 [Example 44] | 27 | –
14 | CN1C(=O)c2ccc(N)cc2Oc2ccccc21 [Example 25] | 26 | –
15 | CCCN1C(=S)c2ccccc2Oc2ccccc21 [Example 3, 10 -Propyl-10H-Dibenz [b,f][1,4]Oxazepin-11-Thione] | 94 | –
16 | Nc1ccc2c(c1)Oc1ccccc1C(=O)N2 [Example 21] | 3 | –
17 | CCCN1C(=O)c2ccccc2Oc2ccccc21 [Example 1, 10-Propyl-10H-Dibenz[b,f][1,4]Oxazepin-11-One] | 100 | T-Cell Culture Assay (% inhibition) (HIV-1): 93%
18 | O=C1c2ccccc2Oc2ccccc2N1C(F)=CI [Example 47] | 92 | –
19 | CCOc1ccc2c(c1)Oc1ccccc1C(=O)N2 [Example 42] | 30 | –
20 | NC(=O)CN1C(=O)c2cc(N)ccc2Oc2ccccc21 [Example 15] | 82 | –
21 | CCOc1ccc2c(c1)Oc1ccccc1C(=O)N2CC [Example 33] | 74 | –
22 | CSCN1C(=O)c2ccccc2Oc2ccccc21 [Example 34] | 100 | –
23 | Cc1ccc2c(c1)Oc1ccccc1C(=O)N2CC(N)=O [Example 31] | 77 | –
24 | CSCCN1C(=O)c2ccc(Cl)cc2Oc2ccccc21 [Example 38] | 83 | –
25 | O=C1Nc2ccccc2Sc2ccccc21 [Example 4, Dibenz[b,f][1,4]Thiazepin-11(10H)-One] | 43 | –

Row | Structure (SMILES) | inhibition at 10 µg/mL [1, 2] [%] | further results
26 | O=C1c2ccccc2Oc2ccccc2N1CC(F)(F)F [Example 48] | 87 | –
27 | Nc1ccc2c(c1)Oc1ccccc1NC2=O [Example 23] | 25 | –
28 | CSCCN1C(=O)c2ccccc2Oc2cc(C)ccc21 [Example 39] | 95 | –
29 | COc1ccc2c(c1)Oc1cccc(OC)c1C(=O)N2 [Example 45] | 44 | –
30 | CN1C(=O)c2ccccc2Sc2ccccc21 [Example 49] | 94 | –
31 | CCN1C(=O)c2cc(N)ccc2Oc2ccc(Cl)cc21 [Example 20] | 95 | –
32 | Cc1ccc2c(c1)NC(=O)c1cc(N)ccc1O2 [Example 18] | 71 | –
33 | CCC(=O)N1C(=O)c2ccccc2Oc2ccccc21 [Example 12] | 44 | –
34 | C=CCN1C(=O)c2ccccc2Oc2cc(N)ccc21 [Example 29] | – | inhibition at 10 µg/mL [1]: 89%
35 | C[S+]([O-])CN1C(=O)c2ccccc2Oc2ccccc21 (stereo not drawn) [Example 35] | 58 | –
36 | COc1cccc2c1Oc1ccccc1N(CC(N)=O)C2=O [Example 13] | 32 | –
37 | CCN1C(=O)c2cc(N)ccc2Oc2ccc(C)cc21 [Example 19] | 100 | –
38 | Cc1ccc2c(c1)Oc1ccccc1C(=O)N2C[S+](C)[O-] (stereo not drawn) [Example 40] | 77 | –
39 | CC(C)N1C(=O)c2ccccc2Oc2ccccc21 [Example 2, 10-Isopropyl-10H-Dibenz[b,f][1,4]Oxazepin-11-One] | 100 | –
40 | C=C(C)CN1C(=O)c2ccccc2Oc2ccccc21 [Example 11] | 77 | –
41 | Cc1ccc2c(c1)Oc1ccc(N)cc1C(=O)N2C [Example 6, 2-Amino-7,10-Dimethyldibenz[b,f][1,4]Oxazepin-11(10H)-One] | – | inhibition at 10 µg/mL [1]: 100%
42 | Cc1ccc2c(c1)Oc1ccc(N)cc1C(=O)N2 [Example 30] | 96 | –
43 | Nc1ccc2c(c1)C(=O)Nc1ccccc1O2 [Example 14] | 85 | –
44 | CSCCN1C(=O)c2ccccc2Oc2ccccc21 [Example 36] | 85 | –
45 | CNc1ccc2c(c1)C(=O)N(C)c1ccccc1O2 [Example 26] | 75 | –
46 | C=CCN1C(=O)c2cc(N)ccc2Oc2ccccc21 [Example 27] | 100 | –
47 | CCN1C(=O)c2ccccc2Oc2ccccc21 [Example 8] | 100 | –
48 | CCOc1ccc2c(c1)Oc1ccccc1C(=O)N2C [Example 32] | 77 | –
49 | CN1C(=O)c2ccccc2Oc2cc(N)ccc21 [Example 24] | 44 | –
50 | CCN1C(=O)c2cc(N)ccc2Oc2ccccc21 [Example 16] | 100 | –
